# Experimental data published in US20240368135A1 (VERTEX PHARMACEUTICALS INCORPORATED, priority 2021, published 2024).
# Where two headings read alike, the source gives them in different places.
# Molecular target: human NaV 1.8 (Homo sapiens, UniProt Q9Y5Y9)
# Assay: E-VIPR assay detecting and measuring NaV inhibition properties
# Format: cell-based
# Conditions: HEK cells expressing truncated human NaV 1.8
# Summary of the method: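 HEK cells expressing truncated, fully active human NaV1.8, with KIR2.1 BacMam co-transduction, were loaded with CC2-DMPE/DiSBAC6(3) voltage-sensing dyes for 20 min at room temperature. Compounds were tested in 11-point 3-fold dilutions (300 nM top final), optionally with 25% human serum, under electrical stimulation with FRET read-out.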
# [1] = no human serum, read-out: IC50 in the E-VIPR Assay
# [2] = in the presence of human serum (compound numbers followed by *), read-out: IC50 in the E-VIPR Assay, performed in the presence of human serum
# Chain of human NaV 1.8 (Q9Y5Y9 126-399 limits assumed): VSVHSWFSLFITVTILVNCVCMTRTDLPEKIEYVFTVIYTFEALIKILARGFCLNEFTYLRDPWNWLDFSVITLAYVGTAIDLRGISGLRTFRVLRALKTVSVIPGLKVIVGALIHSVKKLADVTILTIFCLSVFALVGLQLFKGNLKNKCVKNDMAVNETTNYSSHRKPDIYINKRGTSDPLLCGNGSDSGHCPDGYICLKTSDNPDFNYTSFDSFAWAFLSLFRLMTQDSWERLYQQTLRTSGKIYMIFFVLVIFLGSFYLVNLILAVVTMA
# Chain of human NaV 1.8 (Q9Y5Y9 660-890 limits assumed): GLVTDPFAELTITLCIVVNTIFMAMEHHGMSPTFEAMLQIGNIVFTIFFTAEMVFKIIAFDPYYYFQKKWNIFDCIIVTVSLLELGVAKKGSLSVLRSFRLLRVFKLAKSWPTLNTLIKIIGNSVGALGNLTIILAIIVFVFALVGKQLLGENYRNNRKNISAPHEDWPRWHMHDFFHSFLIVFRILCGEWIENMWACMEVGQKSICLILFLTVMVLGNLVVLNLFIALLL
# Chain of human NaV 1.8 (Q9Y5Y9 1148-1722 limits assumed): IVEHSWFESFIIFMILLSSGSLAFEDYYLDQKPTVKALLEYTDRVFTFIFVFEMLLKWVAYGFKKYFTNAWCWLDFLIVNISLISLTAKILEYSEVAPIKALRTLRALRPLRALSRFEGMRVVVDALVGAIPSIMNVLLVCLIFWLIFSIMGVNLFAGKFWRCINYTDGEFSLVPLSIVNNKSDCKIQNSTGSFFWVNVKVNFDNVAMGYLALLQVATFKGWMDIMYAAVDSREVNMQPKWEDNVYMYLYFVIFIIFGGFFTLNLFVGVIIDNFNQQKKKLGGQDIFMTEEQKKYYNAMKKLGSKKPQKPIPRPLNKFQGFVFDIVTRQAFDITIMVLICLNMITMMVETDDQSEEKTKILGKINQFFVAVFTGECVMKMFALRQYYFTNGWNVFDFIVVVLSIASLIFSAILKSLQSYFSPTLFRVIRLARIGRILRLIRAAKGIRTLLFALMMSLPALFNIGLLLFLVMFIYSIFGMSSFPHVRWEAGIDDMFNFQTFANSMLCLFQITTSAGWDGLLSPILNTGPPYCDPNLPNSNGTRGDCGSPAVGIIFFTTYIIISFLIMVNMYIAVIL
IC50 [1] [nM],IC50 [2] [nM],Compound
100 to 1000,–,"Cc1nn(C2COC2)cc1NC(=O)[C@@H]1O[C@@](C)(C(F)(F)F)[C@@H](C)[C@H]1c1ccc(F)c(F)c1OCCN1CCOCC1 [Compound 594, (2R,3S,4S,5R)-3-(3,4-difluoro-2-(2-morpholinoethoxy)phenyl)-4,5-dimethyl-N-(3-methyl-1-(oxetan-3-yl)-1H-pyrazol-4-yl)-5-(trifluoromethyl)tetrahydrofuran-2-carboxamide]"
100 to 1000,–,"CC(C)Oc1c(C2C(C(=O)Nc3cc(S(C)(=O)=O)ccn3)OC(C)(C(F)(F)F)C2C)ccc(F)c1F (stereo not shown) [Compound 116, 3-(3,4-difluoro-2-isopropoxy-phenyl)-4,5-dimethyl-N-(4-methylsulfonyl-2-pyridyl)-5-(trifluoromethyl)tetrahydrofuran-2-carboxamide]"
≥ 1000,–,"CCS(=O)(=O)c1cc(NC(=O)C2OC(C)(C(F)(F)F)C(C)C2c2ccc(F)c(F)c2OC)ccn1 (single isomer, unassigned) [Compound 52, 3-(3,4-difluoro-2-methoxy-phenyl)-N-(2-ethylsulfonyl-4-pyridyl)-4,5-dimethyl-5-(trifluoromethyl)tetrahydrofuran-2-carboxamide]"
100 to 1000,–,"COc1c([C@H]2[C@H](C(=O)NCC3CC3)O[C@@](C)(C(F)(F)F)[C@H]2C)ccc(F)c1F [Compound 270, (2R,3S,4S,5R)-N-(cyclopropylmethyl)-3-(3,4-difluoro-2-methoxyphenyl)-4,5-dimethyl-5-(trifluoromethyl)tetrahydrofuran-2-carboxamide]"
100 to 1000,–,"CCOc1c([C@@H]2[C@@H](C(=O)Nc3cncc(S(C)(=O)=O)c3)O[C@](C)(C(F)(F)F)[C@@H]2C)ccc(F)c1F (stereo in doubt) [Compound 106, rel-(2S,3R,4R,5S)-3-(2-ethoxy-3,4-difluorophenyl)-4,5-dimethyl-N-(5-(methylsulfonyl)pyridin-3-yl)-5-(trifluoromethyl)tetrahydrofuran-2-carboxamide]"
100 to 1000,–,"COc1c([C@H]2[C@H](C(=O)Nc3ccc(CC4CCOC4)nc3)O[C@@](C)(C(F)(F)F)[C@H]2C)ccc(F)c1F (stereo partly drawn) [Compound 392, (2R,3S,4S,5R)-3-(3,4-difluoro-2-methoxyphenyl)-4,5-dimethyl-N-(6-((tetrahydrofuran-3-yl)methyl)pyridin-3-yl)-5-(trifluoromethyl)-tetrahydrofuran-2-carboxamide]"
< 10,–,"COc1c(C2C(C(=O)Nc3cccc(P(C)(C)=O)c3)OC(C)(C(F)(F)F)C2C)ccc(F)c1F (single isomer, unassigned) [Compound 42, 3-(3,4-difluoro-2-methoxy-phenyl)-N-(3-dimethylphosphorylphenyl)-4,5-dimethyl-5-(trifluoromethyl)tetrahydrofuran-2-carboxamide]"
10 to 100,–,"COc1c([C@H]2[C@H](C(=O)Nc3ccnc(CO)n3)O[C@@](C)(C(F)(F)F)[C@H]2C)ccc(F)c1F [Compound 381, (2R,3S,4S,5R)-3-(3,4-difluoro-2-methoxyphenyl)-N-(2-(hydroxymethyl)pyrimidin-4-yl)-4,5-dimethyl-5-(trifluoromethyl)tetrahydrofuran-2-carboxamide]"
100 to 1000,–,"COc1c([C@@H]2[C@@H](C(=O)Nc3ccc4cnnn4c3)O[C@](C)(C(F)(F)F)[C@@H]2C)ccc(F)c1C(F)F (stereo in doubt) [Compound 160, rel-(2S,3R,4R,5S)-N-([1,2,3]triazolo[1,5-a]pyridin-6-yl)-3-(3-(difluoromethyl)-4-fluoro-2-methoxyphenyl)-4,5-dimethyl-5-(trifluoromethyl)tetrahydrofuran-2-carboxamide]"
–,≥ 1000,"COc1c(C2C(C(=O)Nc3ccnc(C(C)(O)CO)c3)OC(C)(C)C2C)ccc(F)c1F (single isomer, unassigned) [Compound 725, rel-3-(3,4-difluoro-2-methoxyphenyl)-N-(2-(1,2-dihydroxypropan-2-yl)pyridin-4-yl)-4,5,5-trimethyltetrahydrofuran-2-carboxamide]"
< 10,–,"CNC(COC)c1cc(NC(=O)[C@@H]2O[C@@](C)(C(F)(F)F)[C@@H](C)[C@H]2c2ccc(F)c(F)c2OC)ccn1 (single isomer, unassigned) [Compound 412, rel-(2R*,3S*,4S*,5R*)-3-(3,4-difluoro-2-methoxyphenyl)-N-(2-(2-methoxy-1-(methylamino)ethyl)-pyridin-4-yl)-4,5-dimethyl-5-(trifluoromethyl)-tetrahydrofuran-2-carboxamide]"
< 10,–,"COc1c([C@H]2[C@H](C(=O)Nc3ccc(C(N)=O)nc3)O[C@@](C)(C(F)(F)F)[C@H]2C)cccc1C(F)(F)F (stereo in doubt) [Compound 156, rel-5-((2R,3S,4S,5R)-3-(2-methoxy-3-(trifluoromethyl)phenyl)-4,5-dimethyl-5-(trifluoromethyl)tetrahydrofuran-2-carboxamido)picolinamide]"
≥ 1000,–,"COc1c([C@@H]2[C@@H](C(=O)Nc3ccc(C(F)F)nc3)O[C@](C)(C(F)(F)F)[C@@H]2C)ccc(F)c1C(F)F (single isomer, unassigned) [Compound 164]"
< 10,–,"COCCOc1c([C@H]2[C@H](C(=O)Nc3ccnc(CO)c3)O[C@@](C)(C(F)(F)F)[C@H]2C)ccc(F)c1F [Compound 639, (2R,3S,4S,5R)-3-(3,4-difluoro-2-(2-methoxyethoxy)phenyl)-N-(2-(hydroxymethyl)pyridin-4-yl)-4,5-dimethyl-5-(trifluoromethyl)tetrahydrofuran-2-carboxamide]"
≥ 1000,–,"COc1c(C2C(C(=O)Nc3ccnc(C(C)(C)O)c3)OC(C)(C(F)(F)F)C2C)ccc(F)c1F (single isomer, unassigned) [Compound 47, 3-(3,4-difluoro-2-methoxy-phenyl)-N-[2-(1-hydroxy-1-methyl-ethyl)-4-pyridyl]-4,5-dimethyl-5-(trifluoromethyl)tetrahydrofuran-2-carboxamide]"
≥ 1000,–,"COc1c([C@H]2[C@H](C(=O)NCC3CCOC3)O[C@@](C)(C(F)(F)F)[C@H]2C)ccc(F)c1F (stereo partly drawn) [Compound 279, (2R,3S,4S,5R)-3-(3,4-difluoro-2-methoxyphenyl)-4,5-dimethyl-N-((tetrahydrofuran-3-yl)methyl)-5-(trifluoromethyl)tetrahydrofuran-2-carboxamide]"
< 10,–,"C[C@H]1[C@@H](c2ccc(F)c(F)c2OCCO)[C@H](C(=O)Nc2ccnc(C(C)(C)O)c2)O[C@@]1(C)C(F)(F)F [Compound 540, (2R,3S,4S,5R)-3-(3,4-difluoro-2-(2-hydroxyethoxy)phenyl)-N-(2-(2-hydroxypropan-2-yl)pyridin-4-yl)-4,5-dimethyl-5-(trifluoromethyl)tetrahydrofuran-2-carboxamide]"
10 to 100,–,"COc1c([C@H]2[C@H](C(=O)Nc3cc(C(N)C(C)(C)OC)ncc3F)O[C@@](C)(C(F)(F)F)[C@H]2C)ccc(F)c1F (single isomer, unassigned) [Compound 356, rel-(2R*,3S*,4S*,5R*)-N-(2-(1-amino-2-methoxy-2-methylpropyl)-5-fluoropyridin-4-yl)-3-(3,4-difluoro-2-methoxyphenyl)-4,5-dimethyl-5-(trifluoromethyl)-tetrahydrofuran-2-carboxamide]"
≥ 1000,–,"COc1c([C@H]2[C@H](C(=O)NC(C)C(=O)NC3CC3)O[C@@](C)(C(F)(F)F)[C@H]2C)ccc(F)c1F (stereo partly drawn) [Compound 297, (2R,3S,4S,5R)-N-(1-(cyclopropylamino)-1-oxopropan-2-yl)-3-(3,4-difluoro-2-methoxyphenyl)-4,5-dimethyl-5-(trifluoromethyl)tetrahydrofuran-2-carboxamide]"
10 to 100,–,"C[C@H]1[C@@H](c2ccc(F)c(F)c2)[C@H](C(=O)Nc2ccnc(S(C)(=O)=O)c2)O[C@@]1(C)C(F)(F)F (stereo in doubt) [Compound 155, rel-(2R,3S,4S,5R)-3-(3,4-difluorophenyl)-4,5-dimethyl-N-(2-(methylsulfonyl)pyridin-4-yl)-5-(trifluoromethyl)tetrahydrofuran-2-carboxamide]"
–,≥ 1000,"C[C@@H]1[C@H](c2ccc(F)c(F)c2OC(F)F)[C@@H](C(=O)Nc2ccc(C(N)=O)nc2)O[C@]1(C)C(F)(F)F (single isomer, unassigned) [Compound 93]"
10 to 100,–,"Cc1nnn2ccc(NC(=O)[C@@H]3O[C@@](C)(C(F)(F)F)[C@@H](C)[C@H]3c3ccc(F)c(F)c3OCCO)cc12 [Compound 574, (2R,3S,4S,5R)-3-(3,4-difluoro-2-(2-hydroxyethoxy)phenyl)-4,5-dimethyl-N-(3-methyl-[1,2,3]triazolo[1,5-a]pyridin-5-yl)-5-(trifluoromethyl)tetrahydrofuran-2-carboxamide]"
< 10,–,"COc1c([C@H]2[C@H](C(=O)Nc3ccnc(CN(C)C)c3)O[C@@](C)(C(F)(F)F)[C@H]2C)ccc(F)c1F [Compound 183, (2R,3S,4S,5R)-3-(3,4-difluoro-2-methoxyphenyl)-N-(2-((dimethylamino)methyl)pyridin-4-yl)-4,5-dimethyl-5-(trifluoromethyl)tetrahydrofuran-2-carboxamide]"

Compound,IC50 [1] [nM],IC50 [2] [nM]
"COCc1cc(NC(=O)C2OC(C)(C(F)(F)F)C(C)C2c2ccc(F)c(F)c2OC2CC(O)C2)ccn1 [Compound 664, (2R,3S,4S,5R)-3-(3,4-difluoro-2-((1S,3R)-3-hydroxycyclobutoxy)phenyl)-N-(2-(methoxymethyl)pyridin-4-yl)-4,5-dimethyl-5-(trifluoromethyl)tetrahydrofuran-2-carboxamide]",10 to 100,–
"Cc1oncc1NC(=O)C1OC(C)(C(F)(F)F)C(C)C1c1ccc(F)c(F)c1OC1CC(O)C1 [Compound 656, (2R,3S,4S,5R)-3-(3,4-difluoro-2-((1S,3R)-3-hydroxycyclobutoxy)phenyl)-4,5-dimethyl-N-(5-methylisoxazol-4-yl)-5-(trifluoromethyl)tetrahydrofuran-2-carboxamide]",10 to 100,–
